Assay results from patent publication US20110166149A1, “PTERIDINE DERIVATIVES FOR TREATING RESPIRATORY DISEASE” (TARGEGEN INC., priority 2008, published 2011).
Like-named read-outs stand apart in the source and are kept apart here.

Assay: Inhalation exposure: Compound A concentration in lung, plasma and BALF (Example 2)
Assay type: in vivo, BALB/c mice
Settings: for AUC(0-inf) / Cmax / Tmax / AUC(0-t) / concentration at 0.083 h / concentration at 0.25 h / concentration at 0.5 h / concentration at 1 h / concentration at 2 h / concentration at 4 h / concentration at 8 h / concentration at 12 h / concentration at 24 h: male, BALB/c; for AUC(0-inf) / Cmax / Tmax / AUC(0-t): inhaled or intranasal; for AUC(0-t): read-out: AUC(0-24); for concentration at 0.083 h / concentration at 0.25 h / concentration at 0.5 h / concentration at 1 h / concentration at 2 h / concentration at 4 h / concentration at 8 h / concentration at 12 h / concentration at 24 h: mouse, inhaled, mice, 30 min inhalation
Protocol: A series of compositions for pulmonary delivery were prepared by making a 20% suspension of compound A in a 5% tyloxapol solution in water. Particle size reduction was achieved using a colloid mill (magicLAB®, MK module, for 6 hours @ 12,000 rpm, while maintaining a temperature below 50° C.). Samples at 4% w/v compound A were prepared by dilution with DI water.
Low (0.02 mg/L), mid (0.07 mg/L), and high (0.20 mg/L) target aerosol concentrations 0.3% Compound A/0.075% tyloxapol, 0.6% Compound A/0.15% tyloxapol, and 1.5% Compound A/0.375% tyloxapol suspensions were used. These low, mid, and high target formulations were prepared as follows: […]
4% compound A and 1% tyloxapol were removed from refrigeration and approximately 2.25, 4.5, and 12 mL were transferred into clean 50 mL graduated plastic tubes, labeled 0.3% A/0.075% tyloxapol, 0.6% A/0.15% tyloxapol, and 1.5% A/0.375% tyloxapol suspensions and allowed to warm to room temperature. Each was diluted to 20 mL with ultra pure water and vortexed until completely mixed. Each formulation was made the morning of exposure to alleviate any storing/stability issues.
Eighty-seven (87) male BALB/c mice (8 weeks of age on arrival and 18.6-24.6 g on exposure day) were purchased from Charles River Laboratories (Raleigh, N.C.). The three animals with the lowest body weights and the three with the highest body weights were excluded from the study on the day of randomization. The remaining eighty-one (81) animals were assigned to the study. Temperatures and relative humidity (RH) in animal housing areas were within the target range specified in the protocol.
Animals were exposed to one of three concentrations of Compound A aerosols for a target of 30 min.
The actual concentrations of test article in the exposure atmospheres were determined by chemical analysis of timed filter samples collected directly from a nose-only exposure port during exposure. In addition, one impactor sample was obtained to verify particle size distribution (PSD), which is characterized by mass median aerodynamic diameter (MMAD) and geometric standard deviation (GSD). The filters and impactor stages were analyzed chemically by LRRI and are described below.

[1] = 0.15 mg/kg, mouse BALF, aerosol conc. 0.02 mg/L
[2] = 0.27 mg/kg, mouse BALF, aerosol conc. 0.07 mg/L
[3] = 0.7 mg/kg, mouse BALF, aerosol conc. 0.2 mg/L
[4] = mouse lung, aerosol conc. 0.02 mg/L
[5] = mouse lung, aerosol conc. 0.07 mg/L
[6] = mouse lung, aerosol conc. 0.2 mg/L
[7] = BALF, nominal aerosol 0.02 mg/L, read-out: Compound A concentration BALF
[8] = BALF, nominal aerosol 0.07 mg/L, read-out: Compound A concentration BALF
[9] = BALF, nominal aerosol 0.2 mg/L, read-out: Compound A concentration BALF
[10] = lung, nominal aerosol 0.02 mg/L, read-out: Compound A concentration Lung

Q: Which results are given for `Nc1nc(N)c2nc(-c3cccc(O)c3)c(-c3cccc(O)c3)nc2n1` [Compound A, 6,7-bis(3-hydroxyphenyl)-pteridine-2,4-diamine]?
A: time course of concentration in lung and BALF (FIGS. 1 and 2, higher concentrations for mice exposed to higher doses): dose dependent; Maximum concentration in the BALF (Group A (0.02 mg/L)): 1190 ng/mL; Maximum concentration in the lung (Group A (0.02 mg/L)): 20.9 µg/g; time of maximum concentration in the BALF (Group A (0.02 mg/L)): 0.25 h; time of maximum concentration in the lung (Group A (0.02 mg/L)): 0.08 h; Maximum concentration in the BALF (Group B (0.07 mg/L)): 2140 ng/mL; time of maximum concentration in the BALF (Group B (0.07 mg/L)): 0.08 h; time of maximum concentration in the lung (Group B (0.07 mg/L)): 2.00 h; Maximum concentration in the BALF (Group C (0.2 mg/L)): 5670 ng/mL; time of maximum concentration in the BALF (Group C (0.2 mg/L)): 0.25 h; time of maximum concentration in the lung (Group C (0.2 mg/L)): 0.50 h; plasma levels (all aerosol concentrations, generally): < LLOQ; AUC(0-inf) [1]: 21700 ng·h/mL; Cmax [1]: 1190 ng/mL; Tmax [1]: 15 min; AUC(0-t) [1]: 8850 ng·h/mL; AUC(0-inf) [2]: 30400 ng·h/mL; Cmax [2]: 2140 ng/mL; Tmax [2]: 4.8 min; AUC(0-t) [2]: 18100 ng·h/mL; AUC(0-inf) [3]: 54300 ng·h/mL; Cmax [3]: 5670 ng/mL; Tmax [3]: 15 min; AUC(0-t) [3]: 37200 ng·h/mL; Cmax [4]: 20900 ng/g; Tmax [4]: 4.8 min; Cmax [5]: 22700 ng/g; Tmax [5]: 120 min; Cmax [6]: 67200 ng/g; Tmax [6]: 30 min; concentration at 0.083 h [7]: 896 ± 41.7 ng/mL; concentration at 0.25 h [7]: 1190 ± 35.4 ng/mL; concentration at 0.5 h [7]: 457 ± 219 ng/mL; concentration at 1 h [7]: 831 ± 288 ng/mL; concentration at 2 h [7]: 813 ± 117 ng/mL; concentration at 4 h [7]: 541 ± 409 ng/mL; concentration at 8 h [7]: 286 ± 156 ng/mL; concentration at 12 h [7]: 296 ± 19.1 ng/mL; concentration at 24 h [7]: 223 ± 91.2 ng/mL; concentration at 0.083 h [8]: 2140 ± 1340 ng/mL; concentration at 0.25 h [8]: 1190 ± 270 ng/mL; concentration at 0.5 h [8]: 1350 ± 559 ng/mL; concentration at 1 h [8]: 1250 ± 359 ng/mL; concentration at 2 h [8]: 930 ± 818 ng/mL; concentration at 4 h [8]: 1310 ± 1010 ng/mL; concentration at 8 h [8]: 800 ± 225 ng/mL; concentration at 12 h [8]: 569 ± 142 ng/mL; concentration at 24 h [8]: 512 ± 128 ng/mL; concentration at 0.083 h [9]: 3150 ± 110 ng/mL; concentration at 0.25 h [9]: 5670 ± 2550 ng/mL; concentration at 0.5 h [9]: 2220 ± 1910 ng/mL; concentration at 1 h [9]: 2570 ± 2030 ng/mL; concentration at 2 h [9]: 3190 ± 2580 ng/mL; concentration at 4 h [9]: 3350 ± 687 ng/mL; concentration at 8 h [9]: 1370 ± 185 ng/mL; concentration at 12 h [9]: 1050 ± 799 ng/mL; concentration at 24 h [9]: 694 ± 56 ng/mL; concentration at 0.083 h [10]: 20900 ± 13200 ng/g; concentration at 0.25 h [10]: 10100 ± 1390 ng/g; concentration at 0.5 h [10]: 11700 ± 8050 ng/g; concentration at 1 h [10]: 11800 ± 7260 ng/g; concentration at 2 h [10]: 9550 ± 840 ng/g; concentration at 4 h [10]: 10500 ± 3250 ng/g
